# Literature values, collected in patent US8028928B2, “Spreader apparatus for sand based formulations” (priority 2007, dated 2011).
# Tested on: S. homoeocarpa
# Conditions: bent grass blend Cato:Crenshaw (50:50); high disease pressure
structure (smiles),measurement,value
"CSC(=O)c1cccc2nnsc12 [ASM, acibenzolar-5-methyl]",Reduction of number of S. homoeocarpa infection centers,38%
